Read-outs that look alike come from different tables or passages of the source. Peptide text beside a SMILES is read from it.
Test system: splenocytes from TFA-S100 immunized BALB/c mice
Conditions: for activation of T cells (splenocyte proliferation, 3H thymidine incorporation / proliferation index): 0.1, 0.5 or 1 ug/mL epitope, splenocytes two weeks after TFA-S100 immunization; for recognition by DILI-specific T cells and B cells: summary of mouse splenocyte proliferation and human serum ELISA
Experimental: FIG. 4. Splenocyte proliferation assays with candidate CYP2E1 epitopes.
As described above, BALB/c mice were immunized with TFA-S100. Splenocytes from BALB/c mice immunized with S100 in CFA plus PT or CFA and PT alone were used as controls. Splenocyte isolation was performed using basic immunological techniques. Briefly, spleens were harvested two weeks after immunization. Spleens were mashed between two frosted glass slides, and tissue debris was removed by filtering the sample through a 70 μm cell strainer. The remaining cells were washed with sterile phosphate buffered saline/2% fetal calf serum (PBS/2% FCS) and centrifuged at 1500 rpm for 10 minutes using a refrigerated desktop centrifuge. Red cells were lysed using ACK lysing buffer. The remaining cells were washed with RPMI-10% HEPES and filtered through a 70 μm cell strainer. The splenocytes were stored in RPMI complete media with 10% FCS (RPMI-10) at a final concentration of 2.5 million cells per 1 mL of media.
For the proliferation assays, 2.5×10^5 splenocytes (100 μl) were added to each well of a 96 well plate with 0.1 μg/mL, 0.5 μg/mL, or 1 μg/mL of a candidate epitope. As controls, media or concanavalin A (Con A) were also tested in the proliferation assays. Plates were incubated for 3 days at 37° C., 5% CO2, 95% air (humidified). Six to 18 hours prior to the 72 hour time point, the splenocytes were pulsed with 1 μCi/well ^3H thymidine (0.25 mCi/0.25 ml stock). Specifically, a 1:10 dilution (0.1 mCi/ml) of the ^3H thymidine stock solution is made by adding 200 μl of ^3H thymidine stock solution to 1800 μl of sterile RPMI. 10 μl (1 μCi) of diluted ^3H thymidine was pipetted into each well. The cells were incubated for […]. After incubation, cells were placed in −20° C. for up to 45 minutes to stop the incorporation of ^3H thymidine into proliferating cells. The splenocytes were analyzed and ^3H incorporation, an indicator of cellular proliferation, was measured.

Structure (SMILES)	activation of T cells (splenocyte proliferation, 3H thymidine incorporation / proliferation index)	recognition by DILI-specific T cells and B cells	recognition by DILI-specific T cells and B cells (listed as Gly^113-Leu^133)
CC(C)C[C@H](NC(=O)[C@H](CC(C)C)NC(=O)[C@H](CC(C)C)NC(=O)[C@H](Cc1ccccc1)NC(=O)[C@H](C)NC(=O)[C@H](C)NC(=O)[C@H](Cc1c[nH]c2ccccc12)NC(=O)[C@@H](NC(=O)[C@H](CC(C)C)NC(=O)[C@H](CC(C)C)NC(=O)[C@H](C)NC(=O)[C@@H](NC(=O)[C@@H](NC(=O)[C@@H](NC(=O)CNC(=O)[C@H](CC(C)C)NC(=O)[C@H](C)NC(=O)[C@@H](N)CO)C(C)C)[C@@H](C)O)C(C)C)C(C)C)C(=O)O [JHDN1] (H-SALGVTVALLVWAAFLLL-OH)	able to activate T cells		
CC[C@H](C)[C@H](NC(=O)CN)C(=O)N[C@H](C(=O)N[C@@H](Cc1ccccc1)C(=O)N[C@@H](CC(N)=O)C(=O)N[C@@H](CC(N)=O)C(=O)NCC(=O)N1CCC[C@H]1C(=O)N[C@H](C(=O)N[C@@H](Cc1c[nH]c2ccccc12)C(=O)N[C@@H](CCCCN)C(=O)N[C@@H](CC(=O)O)C(=O)N[C@H](C(=O)N[C@@H](CCCNC(=N)N)C(=O)N[C@@H](CCCNC(=N)N)C(=O)N[C@@H](Cc1ccccc1)C(=O)N[C@@H](CO)C(=O)N[C@@H](CC(C)C)C(=O)N[C@H](C(=O)N[C@H](C(=O)N[C@@H](CC(C)C)C(=O)O)[C@@H](C)O)[C@@H](C)O)[C@@H](C)CC)[C@@H](C)O)[C@@H](C)CC [JHDN5] (H-GIIFNNGPTWKDIRRFSLTTL-OH)	able to activate T cells	only candidate epitope that is recognized by DILI-specific T cells	recognized by DILI-specific T cells and B cells

Source: patent US9339531B2, “Recognition of CYP2E1 epitopes” (The Johns Hopkins University, priority 2009, dated 2016)
